# Non-standard residues stand in square brackets, D forms with d. Residues, ends and D or L forms follow the SMILES beside them. αMeP = C[C@@]1(C(=O)O)CCCN1
# What was measured:
# [1] = tested on: hippocampal slices of heterozygous Shank3-deficient mice; experiment: Shank3-deficient mouse model, hippocampal slice electrophysiology; format: in vivo; conditions: 15 or 60 mg/kg oral b.i.d. for 14 days
# Method: 1 to 3 month old wild type and heterozygous Shank3-deficient mice are divided into 4 treatment groups: placebo treated wild-type, placebo treated Shank3-deficient group and two Shank3-deficient G-2-MePE treated groups. The animals are given placebo (water) or G-2-MePE formulated in water administered orally, b.i.d for 14 days. G-2-MePE is administered at two doses: 15 or 60 mg/kg.
# Post-mortem, acute hippocampal slices (350 μm) are prepared from mice using a tissue chopper. Slices are maintained and experiments are conducted at 32° C. Slices are perfused with Ringer's solution containing (in mM): NaCl, 125.0; KCl, 2.5; MgSO4, 1.3; NaH2PO4, 1.0; NaHCO3, 26.2; CaCl2, 2.5; glucose, 11.0. The Ringer's solution is bubbled with 95% O2/5% CO2, at 32° C., during extracellular recordings (electrode solution: 3 M NaCl). Slices are maintained for 1 hr prior to establishment of a baseline of field excitatory postsynaptic potentials (fEPSPs) recorded from stratum radiatum in area CA1, evoked by stimulation of the Schaffer collateral-commissural afferents (100 μs pulses every 30 s) with bipolar tungsten electrodes placed into area CA3. Test stimulus intensity is adjusted to obtain fEPSPs with amplitudes that are one-half of the maximal response. The EPSP initial slope (mV/ms) is determined from the average waveform of four consecutive responses. Input-output (I/O) curves are generated by plotting the fEPSP slope versus fiber volley amplitude in low-Mg^2+ (0.1 mM) solution. AMPA receptor-mediated and NMDA receptor-mediated I/O relationships are measured in the presence of ionotropic glutamate receptor antagonists: […] APV (50 μM) and 6-cyano-7-nitroquinoxaline-2,3-dione CNQX (100 μM). Paired-pulse responses are measured with interstimulus intervals of 10 to 200 ms, and are expressed as the ratio of the average responses to the second stimulation pulse to the first stimulation pulse. […]
# [2] = tested on: 12-month old male Wistar rats; experiment: Morris water maze test, spatial reference memory; format: in vivo, rat
# Method: We used male Wistar rats 12, 8 or 4 months of age.
# The Morris water maze test was conducted using a black plastic pool filled to a depth of 25 cm with water colored black with a non-toxic dye. […] The platform remained in that position though the training.
# The experiment used extra-maze cues (i.e. objects in the room surrounding the pool) that the rats could use to navigate to the platform. Distinctive posters or paintings were hung on the walls. Furniture in the room was not moved during the testing period. The placement of the pool allowed the experimenter an easy access to it from all sides. The pool was emptied and refilled daily during testing, with water at 25° C.+/−2° C.
# The furthermost point in the pool (relative to the position of the experimenter) was designated as “north”, and the other compass points “east”, “south” and “west” were the right-most, bottom and left-most points of the pool respectively. These points were marked with tape on the outside of the pool.
# Rats in each group were trained to swim to the submerged platform. The rats received six 60-second trials per day for four consecutive days. A trial began by placing the rat into the water facing the wall of the pool, at one of four start locations (north, south, east, west). […]
# MeCP2-/y mice = experiment: Heart rate measurements; format: in vivo, mouse; conditions: 8 weeks old, treated from P15
# Method: Real time cardiac pulse rate is measured using a tail clip sensor (Mouse OX Oximeter—Oakmont, Pa.). Mice are not anesthetized but physically restrained in a fitted open plastic tube. Prior to the recording session the tube is placed overnight in the cages housing the experimental animals to allow habituation. Body temperature is maintained at ˜82-84° F. throughout the recording time. We record 3 trials of 15 minutes for each mouse, mice are 8 weeks old and treated with vehicle or G-2-MePE from P15.
# To examine heart rate abnormalities in MeCP2−/y mice and the effect of G-2-MePE treatment, we monitor real time cardiac pulse rate in non-anesthetized wild type and MeCP2−/y animals treated with vehicle or G-2-MePE.
# [3] = vs placebo treated Shank3-deficient group
structure (smiles),measurement,setting,value
"C[C@@]1(C(=O)N[C@@H](CCC(=O)O)C(=O)O)CCCN1C(=O)CN [Example G-2-MePE, Glycyl-L-2-methylprolyl-L-glutamic acid] (H-Gly-[αMeP]-Glu-OH)",AMPA receptor-mediated field potentials,[1],normalizes
same,average slope of I/O function,[1]; [3],increase
same,hippocampal long-term potentiation (LTP) and its maintenance,[1]; [3],increased
same,"time needed to reach the platform, retention phase","[2]; high (4.8 mg/day) or low (0.96 mg/day) dose, vs saline-treated controls, 12 month old rats",decrease in the time needed to reach the platform
same,retention of the original water maze task,"[2]; high dose 4.8 mg/day s.c. minipump over 3 weeks, 4-week delay, vs 3-week vehicle",improved the retention
same,occurrence of irregular heart rate with a lower average rate,MeCP2-/y mice,significantly reduced
